Laboratory results published in PMC10525927, “First Generation of Antioxidant Precursors for Bioisosteric Se-NSAIDs: Design, Synthesis, and In Vitro and In Vivo Anticancer Evaluation” (Antioxidants, 2023).

Legend:
HCT-116 cells [1] = assay: Caspase 3/7 apoptosis assay; assay type: cell-based; details: HCT-116, 24 h
Description: (§1) The capacity of the Se-NSAID derivatives to induce apoptosis was analyzed using both a Caspase 3/7 assay kit and Annexin V & Dead Cell assay kit (EMD Millipore, Darmstadt, Germany). HCT-116 cells were seeded in 6-well plates at a density of 5 × 10^5 cells per well. Cells were treated either with DMSO (control) or with different concentrations of compound 5 and incubated for 24 h. At the end of the treatment, cells were collected and treated with the respective dyes according to the manufacturer’s protocol. For the Caspase 3/7 assay, cells were stained with 5 µL of Muse™ Caspase 3/7 working solution and incubated at 37 °C for 30 min. After incubation, […] of Muse™ Caspase 7-AAD working solution was added and the samples were incubated for another 5 min in the dark at room temperature prior to analysis. For Annexin V assay, cells were stained with 100 µL pf Muse™ Annexin V & Dead Cell Reagent and incubated for 20 min at room temperature in the dark. Samples for both assays were analyzed on a Muse™ Cell Analyzer (Merck Millipore, Darmstadt, Germany) using Muse™ version 1.4. software.

[2] = system: HCT-116 colon cancer xenograft; assay: Tumor growth inhibition on HCT-116 colon cancer xenograft model; assay type: in vivo; details: 10 mg/Kg IP
Description: Female mice of 4–5 weeks of age (The Jackson Laboratory, Bar Harbor, ME, USA) were kept on the daily cycle of 12 h light/dark and received food and water ad libitum throughout the studies. All animal procedures were performed following the National Institutes of Health (NIH) Guide for the Care and Use of Laboratory Animals and protocols were approved by the Animal Care and Use Committee of the Penn State College of Medicine.
All mice were housed in quarantine for one week prior to the inoculation of the cancer cells. Female nude mice (4–5 weeks old) were subcutaneously injected (100 µL of PBS/flank) with 2.5 × 10^6 HCT-116 colon cancer cells in each flank. Two weeks after inoculation, mice were sorted randomly into treatment and control groups (five mice/group) such that the mean tumor volumes were similar between groups. […] Mice that were injected with only DMSO (vehicle) were used as negative controls. The body weight of animals and the tumor volume were monitored thrice weekly. Tumor volumes were calculated using the formula (L × W^2)/2, wherein L and W are the length and width of the tumor mass measured with a vernier caliper, respectively. At the end of the experiment, mice were sacrificed by euthanizing the animals by CO2 asphyxiation, and the tumors were excised and weighed. Inspection of major morphological changes in organs was also carried out. The antitumor effect was assessed by the tumor growth inhibition (TGI) and the relative increment ratio (T/C) parameters in the aspects of tumor volume and tumor weight, respectively. The TGI was calculated using the following formula: TGI (%) = [1 − (T − T0)/(C − C0)] × 100, wherein T and C are the final tumor volumes measured at the end of the treatment of compound-treated mice and vehicle-treated mice, respectively, whereas T0 and C0 are the tumor volumes measured at the beginning of the treatment of compound-treated mice and vehicle-treated mice, respectively. The T/C value was calculated as WT/WC × 100, wherein WT is the mean of tumor weight of the compound-treated mice, and WC is the mean of tumor weight of the vehicle-treated mice.

[3] = system: DU-145 prostate cancer cells; assay: MTT cell viability assay, DU-145; assay type: cell-based; details: mean ± SD
Description: (§2) The cell lines were purchased from the American Type Culture Collection (ATCC). The cancer cell lines DU-145, PC-3, T-47D, MDA-MB-231, H1299, and A549, and the non-tumorigenic cells (184B5 and BEAS-2B), were maintained in RPMI 1640 medium (Gibco, Alcobendas, Madrid, Spain) supplemented with 10% fetal bovine serum (FBS; Gibco) and 1% antibiotics (10.00 units/mL penicillin and 10.00 mg/mL streptomycin; Gibco). Colon cancer cells HT-29 and HCT-116 were cultured in McCoy’s 5A medium (Gibco) supplemented with 10% fetal bovine serum (FBS; Gibco) and 1% antibiotics (10.00 units/mL penicillin and 10.00 mg/mL streptomycin; Gibco). Cells were maintained in tissue culture flasks at 37 °C and 5% CO2. The culture medium was replaced every three days.
(§3) The antiproliferative activity and selectivity in vitro of the Se-NSAID derivatives were determined by the (3-(4,5-dimethylthiazol-2-yl)-2,5-diphenyltetrazolium bromide) (MTT) assay. Compounds were dissolved in DMSO at a concentration of 0.01 M and serial dilutions were prepared. The Se-NSAID derivatives were tested at seven concentrations ranging between 1 and 100 µM in the colon (HT-29 and HCT-116), prostate (DU-145 and PC-3), breast (MDA-MB-231 and T-47D), and lung (H1299 and A549) cancer cell lines. The non-tumorigenic breast (184B5) and lung (BEAS-2B) cell lines were also tested to assess the selectivity of the compounds following the same procedure. A total of 1 × 10^4 cells were seeded per well in 96-well plates and incubated at 5% CO2 and 37 °C for 24 h. Then, cells were treated with either DMSO or increasing concentrations of the corresponding Se-NSAID derivatives for 48 h. A volume of 20 µL of MTT (5 mg/mL) was added to each well 2.5 h before the termination point. At the end of the experiment, the medium was removed, and the resultant formazan crystals formed by mitochondrial reduction of MTT were dissolved in 50 µL of DMSO. Absorbance was measured at 550 nm. IC50, GI50, TGI, and LC50 values were calculated using OriginPro version 8.5.1. software by nonlinear curve fitting. Selectivity indexes (SI) were calculated as the ratio of the IC50 values determined for the nonmalignant and the tumoral cells in the breast (IC50 (184B5)/IC50 (MDA-MB-231) and IC50 (184B5)/IC50 (T-47D)) and lung (IC50 (BEAS-2B)/IC50 (H1299) and IC50 (BEAS-2B)/IC50 (A549)) cell lines. Data were obtained from at least three independent experiments performed in triplicates.

HCT-116 cells [4] = assay: Annexin V & Dead Cell apoptosis assay; assay type: cell-based; details: HCT-116, 24 h
Description: as §1

[5] = system: T-47D breast cancer cells; assay: MTT cell viability assay, T-47D; assay type: cell-based; details: 48 h, mean ± SD
Description: as §2, §3

[6] = system: PC-3 prostate cancer cells; assay: MTT cell viability assay, PC-3; assay type: cell-based; details: 48 h, mean ± SD
Description: as §2, §3

[7] = in vitro TGI concentration, Table S1

CC(C)Cc1ccc(C(C)C(=O)[Se][Se]C(=O)C(C)c2ccc(CC(C)C)cc2)cc1 (stereo not shown) [Compound 5, 2-(4-Isobutylphenyl)propanoic diselenoperoxyanhydride]
Dead cells (HCT-116 cells [1]; Caspase 3/7 assay, 25 μM): ~ 11%
caspase 3/7 activity (HCT-116 cells [1]; 2.5 to 25 µM, result in words): no clear enhancement
TGI (tumor growth inhibition, tumor volume) ([2]; HCT-116 subcutaneous xenograft, female nude mice, 23 days of treatment, day 38, vs vehicle): 72%
T/C (relative increment ratio, tumor weight) ([2]; HCT-116 subcutaneous xenograft, female nude mice, end of treatment): 38%
body weight of the mice vs vehicle during treatment ([2]; HCT-116 xenograft mice): slight change
toxicity signs (morphological abnormalities in major organs) ([2]; HCT-116 xenograft mice, end of experiment): no evident toxicity signs
LD50 DU-145 ([3]; 48 h, Table S1): 9.0 ± 0.4 µM
IC50 ([3]; Homo sapiens, DU-145, 48 h): 7 ± 1.3 µM
GI50 ([3]; Homo sapiens, DU-145, 48 h, Table S1): 6 ± 1.3 µM
TGI DU-145 ([3]; in vitro TGI concentration, 48 h, Table S1): 7.3 ± 0.9 µM
Early Apop. cells (HCT-116 cells [4]; 15 μM): ~ 23%
Late Apop./Dead cells (HCT-116 cells [4]; 15 μM): ~ 13%
Live cells (HCT-116 cells [4]; 15 μM): ~ 63%
Dead cells (HCT-116 cells [4]; 25 μM): ~ 10%
Late Apop./Dead cells (HCT-116 cells [4]; 25 μM): ~ 20%
Live cells (HCT-116 cells [4]; 25 μM): ~ 60%
cells detected to be apoptotic (HCT-116 cells [4]; 25 μM): more than 30%
LD50 T-47D ([5]; Table S1): 4.2 ± 0.3 µM
IC50 ([5]; Homo sapiens, T47D): 3.8 ± 0.2 µM
GI50 ([5]; Homo sapiens, T47D, Table S1): 1.8 ± 0.4 µM
TGI T-47D [5, 7]: 2.7 ± 0.3 µM
IC50 [6]: 7.4 ± 0.5 µM
GI50 ([6]; Table S1): 4.7 ± 0.2 µM
LD50 PC-3 ([6]; Table S1): 8.9 ± 1.9 µM
TGI PC-3 [6, 7]: 6.1 ± 0.5 µM
